Measurements taken from patent US9718813B2, “Imidazolin-5-one derivative useful as FASN inhibitors for the treatment of cancer” (Janssen Pharmaceutica, NV, priority 2013, dated 2017).

Legend:
[1] = molecular target: hFASN enzyme (full length) (Homo sapiens (Human), UniProt P49327); assay: Fatty Acid Synthase (FASN) Inhibition Scintillation Proximity Assay; assay type: biochemical; settings: 3H-acetyl-CoA and malonyl-CoA substrates, SPA, mean if tested more than once; for IC50: read-out: Human FASN pIC50 (converted)
Sequence of hFASN enzyme (full length) (P49327 whole entry): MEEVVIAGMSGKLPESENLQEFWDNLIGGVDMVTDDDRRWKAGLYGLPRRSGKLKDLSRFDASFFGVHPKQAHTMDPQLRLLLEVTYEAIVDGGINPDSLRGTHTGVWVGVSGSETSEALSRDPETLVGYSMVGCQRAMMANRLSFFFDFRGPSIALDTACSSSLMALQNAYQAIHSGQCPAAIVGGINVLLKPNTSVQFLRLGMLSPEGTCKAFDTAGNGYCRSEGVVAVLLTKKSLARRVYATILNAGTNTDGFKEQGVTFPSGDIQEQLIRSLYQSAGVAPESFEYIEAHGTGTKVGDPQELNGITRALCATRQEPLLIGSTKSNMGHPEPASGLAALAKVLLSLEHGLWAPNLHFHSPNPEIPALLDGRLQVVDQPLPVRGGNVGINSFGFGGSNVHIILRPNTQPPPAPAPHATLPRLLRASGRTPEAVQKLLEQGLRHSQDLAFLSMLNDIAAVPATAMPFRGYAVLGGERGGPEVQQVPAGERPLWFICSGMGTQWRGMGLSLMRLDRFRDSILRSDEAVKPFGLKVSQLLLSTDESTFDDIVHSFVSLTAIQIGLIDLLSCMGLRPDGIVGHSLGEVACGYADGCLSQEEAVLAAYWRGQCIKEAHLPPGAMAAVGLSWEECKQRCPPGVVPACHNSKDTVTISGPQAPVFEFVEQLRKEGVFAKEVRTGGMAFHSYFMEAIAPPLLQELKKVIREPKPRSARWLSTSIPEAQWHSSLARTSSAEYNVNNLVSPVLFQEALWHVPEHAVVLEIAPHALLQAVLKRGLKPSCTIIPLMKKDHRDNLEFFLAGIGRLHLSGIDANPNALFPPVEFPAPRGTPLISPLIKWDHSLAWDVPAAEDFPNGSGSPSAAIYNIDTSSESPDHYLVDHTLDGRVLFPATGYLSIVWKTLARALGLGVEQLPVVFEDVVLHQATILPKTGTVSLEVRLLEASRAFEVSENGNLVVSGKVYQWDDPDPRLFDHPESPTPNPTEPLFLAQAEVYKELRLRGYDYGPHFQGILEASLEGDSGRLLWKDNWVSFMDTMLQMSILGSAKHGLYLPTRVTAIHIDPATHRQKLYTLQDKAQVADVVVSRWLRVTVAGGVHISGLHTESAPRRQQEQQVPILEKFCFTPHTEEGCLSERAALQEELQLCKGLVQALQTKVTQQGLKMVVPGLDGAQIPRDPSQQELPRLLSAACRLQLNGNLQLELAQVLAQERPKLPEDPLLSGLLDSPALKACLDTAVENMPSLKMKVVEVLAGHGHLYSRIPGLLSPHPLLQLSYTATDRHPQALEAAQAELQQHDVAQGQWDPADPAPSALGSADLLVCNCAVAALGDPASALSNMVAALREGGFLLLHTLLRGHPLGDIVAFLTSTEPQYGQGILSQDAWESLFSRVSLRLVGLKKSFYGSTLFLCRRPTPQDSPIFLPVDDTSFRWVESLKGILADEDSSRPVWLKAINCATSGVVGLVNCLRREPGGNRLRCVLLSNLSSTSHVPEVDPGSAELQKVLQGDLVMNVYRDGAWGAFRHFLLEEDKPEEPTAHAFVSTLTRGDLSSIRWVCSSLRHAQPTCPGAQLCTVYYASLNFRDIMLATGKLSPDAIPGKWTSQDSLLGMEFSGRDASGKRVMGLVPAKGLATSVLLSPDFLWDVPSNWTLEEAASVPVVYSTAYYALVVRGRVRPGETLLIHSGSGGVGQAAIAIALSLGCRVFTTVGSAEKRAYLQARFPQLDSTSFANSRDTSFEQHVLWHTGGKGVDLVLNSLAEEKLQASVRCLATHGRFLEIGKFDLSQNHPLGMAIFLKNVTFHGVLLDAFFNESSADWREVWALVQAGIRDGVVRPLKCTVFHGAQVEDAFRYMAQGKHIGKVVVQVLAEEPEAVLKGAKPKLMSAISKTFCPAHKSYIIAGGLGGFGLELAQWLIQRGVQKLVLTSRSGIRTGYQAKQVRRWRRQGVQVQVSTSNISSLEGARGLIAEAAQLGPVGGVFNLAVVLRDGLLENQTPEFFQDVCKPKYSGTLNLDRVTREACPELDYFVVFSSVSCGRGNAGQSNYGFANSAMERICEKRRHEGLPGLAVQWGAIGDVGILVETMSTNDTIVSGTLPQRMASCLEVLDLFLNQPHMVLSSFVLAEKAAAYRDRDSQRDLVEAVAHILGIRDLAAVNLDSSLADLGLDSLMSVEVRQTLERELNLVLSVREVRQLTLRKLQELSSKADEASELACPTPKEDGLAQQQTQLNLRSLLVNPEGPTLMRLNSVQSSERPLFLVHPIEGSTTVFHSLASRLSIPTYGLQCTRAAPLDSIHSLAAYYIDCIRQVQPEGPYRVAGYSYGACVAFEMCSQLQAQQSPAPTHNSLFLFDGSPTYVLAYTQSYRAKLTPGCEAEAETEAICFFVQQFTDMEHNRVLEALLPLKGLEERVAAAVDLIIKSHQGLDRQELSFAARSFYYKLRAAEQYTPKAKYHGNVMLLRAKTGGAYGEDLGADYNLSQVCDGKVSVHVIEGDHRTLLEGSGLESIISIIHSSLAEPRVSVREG
Outline: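 Full-length human FASN (300 ng, in-house purified) in 100 mM KH2PO4 pH 7.5, 1 mM DTT converts 3H-acetyl-CoA plus malonyl-CoA to hydrophobic 3H-palmitate, captured by streptavidin imaging beads and read on LEADseeker at 610 nm after ≥24 h. Compounds tested 0.01–30 μM; data normalized to plate controls and fitted to 4-parameter logistic curves.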

[2] = molecular target: FASN Keto-reductase Domain (hFASN enzyme, full length) (Homo sapiens (Human), UniProt P49327); assay: Fatty Acid Synthase Keto-reductase Domain (FASN KR) Inhibition; assay type: biochemical; settings: NADPH oxidation at 340 nm, ethyl acetoacetate substrate; for IC50: read-out: FASN Keto-reductase Domain pIC50 (converted)
Sequence of FASN Keto-reductase Domain (hFASN enzyme, full length) (P49327 whole entry, the tested form may be a part): as the sequence (P49327 whole entry) above
Protocol: After 20 minutes incubation at room temperature the plate was measured again (T2).
The decrease in absorbance was calculated as (Absorbance before incubation T1)−(Absorbance following incubation T2).
Raw data generated by the instrument were normalized to % Controlmin values, which were calculated as: % Controlmin=100*(x−mLC)/(mHC−mLC)
where mLC and mHC were the means of the low control wells and high control wells on the plate, after manual exclusion of outliers. A plot of Controlmin versus test compound concentration was fitted to a 4-parameter logistic curve using a non-linear least squares regression method.

A2780 ovarian cells = assay: A2780 Ovarian Cell Proliferation Assay in Lipid Reduced Medium, with Palmitate; assay type: cell-based; settings: Homo sapiens, 10% lipid-reduced serum, 25 μM palmitate, 96 h, MTT, read-out: pIC50 With Palmitate (converted)
Protocol: The biological assays described below correspond to comparative assays for ovarian cell proliferation.
2500 cells were seeded in a 96-well clear well plate in 200 μL RPM11640 with 10% Fetal Calf Serum (Hyclone), and incubated at 37° C., 5% CO2. Blanks were wells without cells. The next day the culture medium was aspirated and replaced by 160 μL culture medium with 10% Lipid-Reduced Serum (LRS, Hyclone). […] After 96 h incubation, an MTT assay was performed.

Human FASN pIC50 [1] | FASN Keto-reductase Domain pIC50 [2] | IC50 (A2780 ovarian cells) | IC50 [1] | IC50 [2] | Compound
7.48 | 7.28 | > 10000 nM | – | – | CC1(C)N=C(c2ccc(-c3ccc4cc(F)ccc4c3)cc2F)N(C[C@@H]2CCN(C(=O)C3CC3)C2)C1=O [Compound 66, (R)-1-((1-(cyclopropanecarbonyl)pyrrolidin-3-yl)methyl)-2-(2-fluoro-4-(6-fluoronaphthalen-2-yl)phenyl)-4,4-dimethyl-1H-imidazol-5(4H)-one]
– | – | > 10000 nM | – | – | CC1(C)N=C(c2ccc(-c3ccc4cccc(F)c4c3)cc2F)N(C[C@@H]2CCN(C(=O)C3CC3)C2)C1=O [Compound 67, (R)-1-((1-(cyclopropanecarbonyl)pyrrolidin-3-yl)methyl)-2-(2-fluoro-4-(8-fluoronaphthalen-2-yl)phenyl)-4,4-dimethyl-1H-imidazol-5(4H)-one]
7.47 | 7.30 | – | – | – | Cc1cc(-c2ccc3cc(F)ccc3c2)ccc1C1=NC(C)(C)C(=O)N1CC1CN(C(=O)C2(C)CC2)C1 [Compound 82, 2-(4-(6-fluoronaphthalen-2-yl)-2-methylphenyl)-4,4-dimethyl-1-((1-(1-methylcyclopropanecarbonyl)azetidin-3-yl)methyl)-1H-imidazol-5(4H)-one]
7.05 | 6.81 | – | – | – | CC1(C)N=C(c2ccc(-c3ccc4cccnc4c3)cc2F)N(CC2CN(C(=O)C3CC3)C2)C1=O [Compound 39, 1-((1-(cyclopropanecarbonyl)azetidin-3-yl)methyl)-2-(2-fluoro-4-(quinolin-7-yl)phenyl)-4,4-dimethyl-1H-imidazol-5(4H)-one]
6.15 | 6.17 | – | – | – | CC1(C)N=C(c2ccc(-c3cnc4ccccc4c3)cc2)N(C[C@@H]2CCN(C(=O)C3CC3)C2)C1=O [Compound 25, (R)-1-((1-(cyclopropanecarbonyl)pyrrolidin-3-yl)methyl)-4,4-dimethyl-2-(4-(quinolin-3-yl)phenyl)-1H-imidazol-5(4H)-one]
– | – | – | 240 nM | 389 nM | COCC1(C)N=C(c2ccc(-c3ccc4occc4c3)cc2)N(C[C@@H]2CCN(C(=O)C3CC3)C2)C1=O (mixture of isomers) [Compound 8, (4RS)-2-(4-(Benzofuran-5-yl)phenyl)-1-(((R)-1-(cyclopropanecarbonyl)pyrrolidin-3-yl)methyl)-4-(methoxymethyl)-4-methyl-1H-imidazol-5(4H)-one]
– | – | – | 72.4 nM | 129 nM | CC1(c2ccccc2)N=C(c2ccc(-c3ccc4[nH]ccc4c3)cc2)N(C[C@@H]2CCN(C(=O)C3CC3)C2)C1=O (mixture of isomers) [Compound 7, (4RS)-2-(4-(1H-Indol-5-yl)phenyl)-1-(((R)-1-(cyclopropanecarbonyl)pyrrolidin-3-yl)methyl)-4-methyl-4-phenyl-1H-imidazol-5(4H)-one]
6.82 | 6.44 | – | – | – | Cc1cc(-c2ccc3c(cnn3C)c2)ccc1C1=NC(C)(C)C(=O)N1CC1CN(C(=O)C2(C)CC2)C1 [Compound 77, 4,4-dimethyl-2-(2-methyl-4-(1-methyl-1H-indazol-5-yl)phenyl)-1-((1-(1-methylcyclopropanecarbonyl)azetidin-3-yl)methyl)-1H-imidazol-5(4H)-one]
7.26 | 7.32 | > 10000 nM | – | – | CC1(C)N=C(c2ccc(-c3ccc4cnccc4c3)cc2F)N(C[C@@H]2CCN(C(=O)C3CC3)C2)C1=O [Compound 68, (R)-1-((1-(cyclopropanecarbonyl)pyrrolidin-3-yl)methyl)-2-(2-fluoro-4-(isoquinolin-6-yl)phenyl)-4,4-dimethyl-1H-imidazol-5(4H)-one]
7.25 | 7.25 | – | – | – | CC1(C)N=C(c2ccc(-c3ccc4cccnc4c3)cc2)N(C[C@@H]2CCN(C(=O)C3CC3)C2)C1=O [Compound 23, (R)-1-((1-(cyclopropanecarbonyl)pyrrolidin-3-yl)methyl)-4,4-dimethyl-2-(4-(quinolin-7-yl)phenyl)-1H-imidazol-5(4H)-one]
7.09 | 6.33 | – | – | – | CC1(C)N=C(c2ccc(-c3ccc4occc4c3)cc2)N(C[C@@H]2CCN(C(=O)C3CC3)C2)C1=O [Compound 3, (R)-2-(4-(benzofuran-5-yl)phenyl)-1-((1-(cyclopropanecarbonyl)pyrrolidin-3-yl)methyl)-4,4-dimethyl-1H-imidazol-5(4H)-one]
7.12 | 7.06 | – | – | – | Cc1cc(-c2ccc(-c3cnn(C)c3)cc2)ccc1C1=NC(C)(C)C(=O)N1CC1CN(C(=O)C2(C)CC2)C1 [Compound 87, 4,4-dimethyl-2-(3-methyl-4′-(1-methyl-1H-pyrazol-4-yl)-[1,1′-biphenyl]-4-yl)-1-((1-(1-methylcyclopropanecarbonyl)azetidin-3-yl)methyl)-1H-imidazol-5(4H)-one]
6.65 | 6.32 | – | – | – | CC1(C)N=C(c2ccc(-c3ccc4cncnc4c3)cc2)N(C[C@@H]2CCN(C(=O)C3CC3)C2)C1=O [Compound 42, (R)-1-((1-(cyclopropanecarbonyl)pyrrolidin-3-yl)methyl)-4,4-dimethyl-2-(4-(quinazolin-7-yl)phenyl)-1H-imidazol-5(4H)-one]
6.64 | 6.14 | – | – | – | CC1(C)N=C(c2ccc(-c3c[nH]c4ccccc34)cc2)N(C[C@@H]2CCN(C(=O)C3CC3)C2)C1=O [Compound 65, (R)-2-(4-(1H-indol-3-yl)phenyl)-1-((1-(cyclopropanecarbonyl)pyrrolidin-3-yl)methyl)-4,4-dimethyl-1H-imidazol-5(4H)-one]
~6.22 | 6.08 | – | – | – | CC1(C)N=C(c2ccc(-c3ccc(-c4ccncc4)cc3)cc2)N(CC2CN(C(=O)C3CC3)C2)C1=O [Compound 26, 1-((1-(cyclopropanecarbonyl)azetidin-3-yl)methyl)-4,4-dimethyl-2-(4′-(pyridin-4-yl)-[1,1′-biphenyl]-4-yl)-1H-imidazol-5(4H)-one]
7.46 | 6.60 | – | – | – | CC1(C)N=C(c2ccc(-c3ccc4cccc(F)c4c3)cc2F)N(CC2CN(C(=O)C3CC3)C2)C1=O [Compound 55, 1-((1-(cyclopropanecarbonyl)azetidin-3-yl)methyl)-2-(2-fluoro-4-(8-fluoronaphthalen-2-yl)phenyl)-4,4-dimethyl-1H-imidazol-5(4H)-one]
6.72 | 6.33 | – | – | – | CC1(C)N=C(c2ccc(-c3cccc4ncccc34)cc2)N(C[C@@H]2CCN(C(=O)C3CC3)C2)C1=O [Compound 31, (R)-1-((1-(cyclopropanecarbonyl)pyrrolidin-3-yl)methyl)-4,4-dimethyl-2-(4-(quinolin-5-yl)phenyl)-1H-imidazol-5(4H)-one]

Compound | Human FASN pIC50 [1] | FASN Keto-reductase Domain pIC50 [2] | IC50 (A2780 ovarian cells) | IC50 [1] | IC50 [2]
CC1(C2CC2)N=C(c2ccc(-c3ccc4occc4c3)cc2)N(C[C@@H]2CCN(C(=O)C3CC3)C2)C1=O (mixture of isomers) [Compound 9, (4RS)-2-(4-(Benzofuran-5-yl)phenyl)-1-(((R)-1-(cyclopropanecarbonyl)pyrrolidin-3-yl)methyl)-4-cyclopropyl-4-methyl-1H-imidazol-5(4H)-one] | – | – | – | 331 nM | 603 nM
